Experimental findings from patent US20250163057A1, “DCN-1 MODULATING COMPOUNDS AND METHODS OF USE THEREOF” (Cellarity, Inc., priority 2023, published 2025) are described below.

The test system of assay [1] is Cullin-3 (CUL3) neddylation. The experiment in a line: AlphaLISA assay for Cullin-3 (CUL3) neddylation in TF 1 cells. To be noted: Homo sapiens, 3 hours treatment. It is filed as cell-based. In a few lines:
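Neddylated CUL3 was quantified by AlphaLISA in lysates of TF 1 cells exposed for 3 h to test compound in IMDM without supplements. Percent inhibition set between vehicle and 1 μM DI-1548 positive control; IC50 derived by Hill-equation fitting of dose-response curves.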

The target of assay [2] is DCN1 (DCUND1) protein PONY domain (Homo sapiens (Human), UniProt Q96GG9). Description: TR-FRET assay, DCN1 binding with FAM-labeled probe. In a few lines:
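Tb-DCN1 PONY domain (E. coli, biotin/streptavidin-Tb); FAM-labelled non-covalent inhibitor probe; TritonX buffer, 200 mM NaCl; 5 nM DCN1 + 20 nM probe or 0.31 nM DCN1 + 900 nM total probe; 0.1% DMSO; TR-FRET read 1, 5, 24 hrs.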

Setting [3] is: 24 hr after treatment with compound, read-out: TR FRET IC50 24 hr.
Where [4] appears, read: TR FRET IC50 1 hr (nM), 1 hr after treatment with compound.
Setting [5] is: read-out: TR FRET IC50 1 hr, 1 hr after treatment with compound.

Read-outs that look alike come from different tables or passages of the source.

DCN1 (DCUND1) protein PONY domain, sequence (Q96GG9 60-248): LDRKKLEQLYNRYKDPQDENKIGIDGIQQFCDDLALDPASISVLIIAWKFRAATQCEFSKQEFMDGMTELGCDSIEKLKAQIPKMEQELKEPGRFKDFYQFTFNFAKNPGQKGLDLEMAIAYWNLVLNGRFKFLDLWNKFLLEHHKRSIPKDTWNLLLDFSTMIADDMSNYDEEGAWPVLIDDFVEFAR

For `CCN1C(=O)[C@@H](NC(=O)c2cccc(C(F)(F)F)c2)[C@@H](C2CC2)c2c(C(=O)N3CS(=O)(=O)C[C@@H]3C#N)nn(-c3ccccc3)c21` [Compound I-521], the IC50 in assay [1] (TF-1, 3 h) is no more than 0.1 µM; in assay [2] (setting [3]), no more than 200 nM; in assay [2] (setting [4]), 1000 to 3000 nM.
With `CCN1C(=O)[C@H](NC(=O)c2cccc(C(F)(F)F)c2)[C@@H](c2ccc(F)cc2)c2c(COCC#N)nn(-c3ccccc3)c21` [Compound I-522], the IC50 in assay [1] (TF-1, 3 h) is greater than 1 µM; in assay [2] (setting [3]) it was 1000 to 3000 nM; in assay [2] (setting [4]) it was 1000 to 3000 nM.
Regarding `CCN1C(=O)[C@@H](NC(=O)c2cccc(C(F)(F)F)c2)[C@@H](C2CCCC2)c2c(C(=O)N(C)[C@H](C)C#N)nn(C3CCOCC3)c21` [Compound I-524], the half-maximal inhibitory concentration (IC50) in assay [1] (TF-1, 3 h) was no more than 0.1 µM; in assay [2] (setting [3]), no more than 200 nM; in assay [2] (setting [4]) it was 200 to 1000 nM.
Consider `CCN1C(=O)[C@H](NC(=O)c2cccc(C(F)(F)F)c2)[C@H](c2ccc(F)cn2)c2c([C@@H](C)NC#N)nn(-c3ccccc3)c21` [Compound I-525], for which the IC50 in assay [1] (TF-1, 3 h) was greater than 1 µM; in assay [2] (setting [3]), 1000 to 3000 nM; in assay [2] (setting [4]), 1000 to 3000 nM.
As for `CCN1C(=O)[C@@H](NC(=O)c2ccc3ccoc3c2)[C@@H](C2CC2)c2c(C(=O)N3[C@H](C#N)C[C@H]4C[C@H]43)nn(C3CCOCC3)c21` [Compound I-526], the IC50 in assay [1] is no more than 0.1 µM; in assay [2] (setting [3]), no more than 200 nM; in assay [2] (setting [5]) it was no more than 200 nM.
With `CCN1C(=O)[C@@H](NC(=O)c2cccc3cccnc23)[C@@H](C2CC2)c2c(C(=O)N3[C@H](C#N)C[C@H]4C[C@H]43)nn(C3CCOCC3)c21` [Compound I-527], the IC50 in assay [1] (TF-1, 3 h) was 0.1 to 1 µM; in assay [2] (setting [3]), no more than 200 nM; in assay [2] (setting [4]), 200 to 1000 nM.
For the compound `CCN1C(=O)[C@@H](NC(=O)c2cccc(C(F)(F)F)c2)[C@@H](c2ccc(F)cc2)c2c([C@H](C)NC#N)nn(-c3ccccc3)c21` [Compound I-530], the half-inhibitory concentration (IC50) is no more than 0.1 µM in assay [1] (TF-1, 3 h); no more than 200 nM in assay [2] (setting [3]); 200 to 1000 nM in assay [2] (setting [4]).
For `C=CC(=O)N[C@H](C)c1nn(-c2ccccc2)c2c1[C@@H](c1ccc(F)cc1)[C@H](NC(=O)c1nccc(C(F)(F)F)n1)C(=O)N2CC` [Compound I-533], in that order: 0.1 to 1 µM, 200 to 1000 nM and 200 to 1000 nM.
For `CCN1C(=O)[C@H](NC(=O)c2cccc(C(F)(F)F)c2)[C@H](c2ccc(F)cc2)c2c(C(=O)N3CCNC[C@@H]3C#N)nn(-c3ccccc3)c21` [Compound I-534], in that order: greater than 1 µM, 1000 to 3000 nM and 1000 to 3000 nM.
Take `CCN1C(=O)[C@H](NC(=O)c2cccc(C(F)(F)F)c2)[C@H](c2ccc(F)cc2)c2c(C(=O)N3CC[C@H]3C#N)nn(-c3ccccc3)c21` [Compound I-535]: the IC50 in assay [1] (TF-1, 3 h) was greater than 1 µM; in assay [2] (setting [3]) it was 1000 to 3000 nM; in assay [2] (setting [4]), 1000 to 3000 nM.
Turning to `CCN1C(=O)[C@@H](NC(=O)c2cccc(C(F)(F)F)c2)[C@@H](c2ccc(F)cc2)c2c([C@@H](C)N(C#N)C(=O)OCCN3CCN(C)CC3)nn(-c3ccccc3)c21` [Compound I-536], the IC50 in assay [1] (TF-1, 3 h) was 0.1 to 1 µM; in assay [2] (setting [3]), no more than 200 nM; in assay [2] (setting [5]) it was no more than 200 nM.
For `CCN1C(=O)[C@@H](NC(=O)c2cccc(C(F)(F)F)c2)[C@@H](c2ccc(F)cc2)c2c(CCN(C#N)CCO)nn(-c3ccccc3)c21` [Compound I-538], the IC50 is 0.1 to 1 µM in assay [1] (TF-1, 3 h); no more than 200 nM in assay [2] (setting [3]); 200 to 1000 nM in assay [2] (setting [4]).
With `CCN1C(=O)[C@@](C)(NC(=O)c2cccc(C(F)(F)F)c2)[C@@H](c2ccc(F)cc2)c2c([C@@H](C)NC#N)nn(-c3ccccc3)c21` [Compound I-539], the concentration for half-maximal inhibition (IC50) was no more than 0.1 µM in assay [1] (TF-1, 3 h); no more than 200 nM in assay [2] (setting [3]); no more than 200 nM in assay [2] (setting [5]).
Take `CCN1C(=O)[C@H](NC(=O)c2cccc(C(F)(F)F)c2)[C@H](c2ccc(F)cc2)c2c(C(=O)N3CCOC[C@H]3C#N)nn(-c3ccccc3)c21` [Compound I-540]: the concentration for half-maximal inhibition (IC50) in assay [1] (TF-1, 3 h) was greater than 1 µM; in assay [2] (setting [3]), 1000 to 3000 nM; in assay [2] (setting [4]) it was 1000 to 3000 nM.
